# Results from PMC4632735, “Ferulic Acid Exerts Anti-Angiogenic and Anti-Tumor Activity by Targeting Fibroblast Growth Factor Receptor 1-Mediated Angiogenesis” (International Journal of Molecular Sciences, 2015).
# Assays:
# FGFR1 = molecular target: T1, FGFR1 (Homo sapiens, UniProt P11362); test: FRET-based in vitro kinase assay (Z'-LYTE); radiometric kinase panel gave […] inhibition at […]; format: biochemical
# T1 construct: kinase domain
# FGFR2 = FGFR2 (Homo sapiens, UniProt P21802); test: in vitro kinase assay; radiometric kinase panel gave […] inhibition at […]; format: biochemical
# FGFR2, sequence (P21802 22-821): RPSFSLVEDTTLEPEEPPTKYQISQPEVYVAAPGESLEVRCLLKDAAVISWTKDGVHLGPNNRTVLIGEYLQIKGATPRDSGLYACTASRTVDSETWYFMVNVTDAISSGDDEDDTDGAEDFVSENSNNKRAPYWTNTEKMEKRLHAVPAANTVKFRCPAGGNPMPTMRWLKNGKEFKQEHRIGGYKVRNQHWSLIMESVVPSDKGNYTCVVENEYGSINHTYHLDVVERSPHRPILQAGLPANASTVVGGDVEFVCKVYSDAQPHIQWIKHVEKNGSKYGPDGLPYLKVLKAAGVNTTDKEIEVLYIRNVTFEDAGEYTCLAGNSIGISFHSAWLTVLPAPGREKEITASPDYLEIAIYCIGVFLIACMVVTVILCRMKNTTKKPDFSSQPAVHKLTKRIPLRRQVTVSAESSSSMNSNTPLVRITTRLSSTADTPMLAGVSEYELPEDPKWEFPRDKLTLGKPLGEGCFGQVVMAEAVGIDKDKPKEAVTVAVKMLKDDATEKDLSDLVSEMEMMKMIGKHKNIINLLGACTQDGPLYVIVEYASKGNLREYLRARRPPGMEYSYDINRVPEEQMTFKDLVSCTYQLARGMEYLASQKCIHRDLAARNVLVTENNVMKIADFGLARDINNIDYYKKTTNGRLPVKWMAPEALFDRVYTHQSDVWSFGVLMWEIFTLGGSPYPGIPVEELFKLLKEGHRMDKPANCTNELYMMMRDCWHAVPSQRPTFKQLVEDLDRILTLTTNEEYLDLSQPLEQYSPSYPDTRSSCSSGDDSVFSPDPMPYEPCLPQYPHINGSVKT
# T1 sequence (P11362 478-767 limits assumed): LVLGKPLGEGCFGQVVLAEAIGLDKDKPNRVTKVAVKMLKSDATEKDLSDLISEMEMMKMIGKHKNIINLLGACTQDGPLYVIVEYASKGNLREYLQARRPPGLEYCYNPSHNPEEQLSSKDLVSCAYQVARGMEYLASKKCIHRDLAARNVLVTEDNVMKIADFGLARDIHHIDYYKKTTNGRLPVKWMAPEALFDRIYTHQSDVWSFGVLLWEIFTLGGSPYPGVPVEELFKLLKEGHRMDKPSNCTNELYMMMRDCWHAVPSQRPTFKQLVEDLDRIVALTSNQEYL
structure (smiles),measurement,setting,value
"COc1cc(/C=C/C(=O)O)ccc1O [FA, 4-hydroxy-3-methoxycinnamic acid]",IC50,FGFR1,~3.78 µM
same,IC50,FGFR2,~12.5 µM
